Results taken from patent publication US20100075960A1 (priority 2006, published 2010).
Where a name gives a salt, the structure may show the parent alone.

tested on: HCT116; test: Inhibition of cell proliferation, HCT116; format: cell-based; conditions: Homo sapiens, HCT-116; 72 h treatment; methylene blue or CellTiter-Glo
Protocol: II. Inhibition of Cell Proliferation by PLK1 Inhibitors.
Exponentially growing cell lines of different tumor origins, cultured in appropriate media containing 10% fetal bovine serum at 37° C. in a 5% CO2 incubator were plated in 96 or 384-well plates. Twenty four hours post-plating, cells were treated with different concentrations of test compounds ranging from 20 μM to 0.04 nM. Several wells were left untreated as a control. Seventy two hours post-treatment, cell numbers were determined using different techniques; 100 μl per well of methylene blue (Sigma M9140) (0.5% in 50:50 Ethanol:water), or 10-100 μl per well of CellTiter-Glo (Promega #G7573), depending on well size. For methylene blue staining, stain was incubated at room temperature for 30 minutes before plates were rinsed and dye solubilized in 1% N-lauroyl sarcosine, sodium salt, (Sigma L5125, in PBS). Plates were read on a microplate reader, measuring the OD at 620 nm. For CellTiter-Glo, plates were incubated at room temperature for 15 minutes and the chemiluminescent signal was read on the Victor V or Envison 2100 reader.
Percent inhibition of cell growth was expressed as percent proliferation relative to 100% proliferation (control). Concentration of test compound that inhibited 50% of cell growth (IC50) was determined by 4 parameter fit of data using XLfit, (value of no cell control was substracted from all samples for background). The data are shown in Table 1 and Table 2 below and represent a compilation of several different experiments each performed using the general parameters outlined above, although minor variations may have been employed in some instances, in Table 1 and Table 2, +=IC50>1 μM; ++=IC50 0.5-1 μM: +++=IC50<0.5 μM.

| Compound | IC50 |
| --- | --- |
| C[C@@H](Oc1cc(-n2cnc3ccccc32)sc1C(N)=O)c1cccc(OCCN2CCNCC2)c1Cl [Example 16, 5-(1H-benzimidazol-1-yl)-3-{[(1R)-1-(2-chloro-3-{[2-(1-piperazinyl)ethyl]oxy}phenyl)ethyl]oxy}-2-thiophenecarboxamide] | < 500 nM |
| C[C@@H](Oc1cc(-n2cnc3ccccc32)sc1C(N)=O)c1cccc(OCCN2CCN(C)CC2)c1Cl [Example 17] | < 500 nM |
| C[C@@H](Oc1cc(-n2cnc3cc(-c4ccc(NC5CCN(C)CC5)nc4)ccc32)sc1C(N)=O)c1cccc(OC2CCN(C)CC2)c1Cl [Example 18] | < 500 nM |
| CCN1CCC(Oc2cccc([C@@H](C)Oc3cc(-n4cnc5cc(Cl)ccc54)sc3C(N)=O)c2Cl)CC1 [Example 19, 5-(5-Chloro-1H-benzimidazol-1-yl)-3-[((1R)-1-{2-chloro-3-[(1-ethyl-4-piperidinyl)oxy]phenyl}ethyl)oxy]-2-thiophenecarboxamide] | < 500 nM |
| C[C@@H](Oc1cc(-n2cnc3cc(Cl)ccc32)sc1C(N)=O)c1cccc(OC2CCN(CCO)CC2)c1Cl [Example 20, 5-(5-Chloro-1H-benzimidazol-1-yl)-3-{((1R)-1-(2-chloro-3-{[1-(2-hydroxyethyl)-4-piperidinyl]oxy}phenyl)ethyl]oxy}-2-thiophenecarboxamide] | < 500 nM |
| C[C@@H](Oc1cc(-n2cnc3cc(Cl)ccc32)sc1C(N)=O)c1cccc(OC2CCN(CCF)CC2)c1Cl [Example 21, 5-(5-Chloro-1H-benzimidazol-1-yl)-3-{[(1R)-1-(2-chloro-3-{[1-(2-fluoroethyl)-4-piperidinyl]oxy}phenyl)ethyl]oxy}-2-thiophenecarboxamide] | < 500 nM |
| C[C@@H](Oc1cc(-n2cnc3cc(Cl)ccc32)sc1C(N)=O)c1cccc(OC2CCN(CCN)CC2)c1Cl [Example 22, 3-{[(1R)-1-(3-{[1-(2-aminoethyl)-4-piperidinyl]oxy}-2-chlorophenyl)ethyl]oxy}-5-(5-chloro-1H-benzimidazol-1-yl)-2-thiophenecarboxamide] | < 500 nM |
| C[C@@H](Oc1cc(-n2cnc3cc(Cl)ccc32)sc1C(N)=O)c1cccc(OC2CCN(CCS(C)(=O)=O)CC2)c1Cl [Example 23, 5-(5-Chloro-1H-benzimidazol-1-yl)-3-({(1R)-1-[2-chloro-3-({1-[2-(methylsulfonyl)ethyl]-4-piperidinyl}oxy)phenyl]ethyl}oxy)-2-thiophenecarboxamide] | < 500 nM |
| CC(C)N1CCC(Oc2cccc([C@@H](C)Oc3cc(-n4cnc5cc(Cl)ccc54)sc3C(N)=O)c2Cl)CC1 [Example 24, 5-(5-Chloro-1H-benzimidazol-1-yl)-3-{[(1R)-1-(2-chloro-3-{[1-(1-methylethyl)-4-piperidinyl]oxy}phenyl)ethyl]oxy}-2-thiophenecarboxamide] | < 500 nM |
| C[C@@H](Oc1cc(-n2cnc3cc(-c4cnn(C)c4)ccc32)sc1C(N)=O)c1cccc(OCCN2CCOCC2)c1Cl [Example 25, 3-{[(1R)-1-(2-chloro-3-{[2-(4-morpholinyl)ethyl]oxy}phenyl)ethyl]oxy}-5-[5-(1-methyl-1H-pyrazol-4yl)-1H-benzimidazol-1-yl]-2-thiophenecarboxamide] | < 500 nM |
| C[C@@H](Oc1cc(-n2cnc3cc(Cl)ccc32)sc1C(N)=O)c1cccc(OCCN2CCOCC2)c1Cl [Example 26, 5-(5-Chloro-1H-benzimidazol-1-yl)-3-{[(1R)-1-(2-chloro-3-{[2-(4-morpholinyl)ethyl]oxy}phenyl)ethyl]oxy}-2-thiophenecarboxamide] | < 500 nM |
| C[C@@H](Oc1cc(-n2cnc3cc(Cl)ccc32)sc1C(N)=O)c1cccc(OC[C@H]2CNCCO2)c1Cl [Example 27, 5-(5-Chloro-1H-benzimidazol-1-yl)-3-{[(1R)-1-(2-chloro-3-{[(2R)-2-morpholinomethyl]oxy}phenyl)ethyl]oxy}-2-thiophenecarboxamide] | < 500 nM |
| C[C@@H](Oc1cc(-n2cnc3cc(Cl)ccc32)sc1C(N)=O)c1cccc(OC[C@@H]2CNCCO2)c1Cl [Example 28, 5-(5-Chloro-1H-benzimidazol-1-yl)-3-{[(1R)-1-(2-chloro-3-{[(2S)-2-morpholinomethyl]oxy}phenyl)ethyl]oxy}-2-thiophenecarboxamide] | < 500 nM |
| C[C@@H](Oc1cc(-n2cnc3cc(-c4cnn(C)c4)ccc32)sc1C(N)=O)c1cccc(OC2CCN(CCF)CC2)c1Cl [Example 29, 3-{[(1R)-1-(2-Chloro-3-{[1-(2-fluoroethyl)-4-piperidinyl]oxy}phenyl)ethyl]oxy}-5-[5-(1-methyl-1H-pyrazol-4-yl)-1H-benzimidazol-1-yl]-2-thiophenecarboxamide] | < 500 nM |

The remaining lines, values ahead:

| IC50 | Compound |
| --- | --- |
| < 500 nM | C[C@@H](Oc1cc(-n2cnc3cc(-c4cnn(C)c4)ccc32)sc1C(N)=O)c1cccc(OC2CCN(CCC(F)(F)F)CC2)c1Cl [Example 30, 3-{[(1R)-1-(2-chloro-3-{[1-(3,3,3-trifluoropropyl)-4-piperidinyl]oxy}phenyl)ethyl]oxy}-5-[5-(1-methyl-1H-pyrazol-4-yl)-1H-benzimidazol-1-yl]-2-thiophenecarboxamide] |
| < 500 nM | C[C@@H](Oc1cc(-n2cnc3cc(Cl)ccc32)sc1C(N)=O)c1ccc(F)c(OC2CCN(C)CC2)c1Cl [Example 32, 5-(5-Chloro-1H-benzimidazol-1yl)-3-[((1R)-1-{2-chloro-4-fluoro-3-[(1-methyl-4-piperidinyl)oxy]phenyl}ethyl)oxy]-2-thiophenecarboxamide] |
| < 500 nM | C[C@@H](Oc1cc(-n2cnc3cc(-c4cnn(C)c4)ccc32)sc1C(N)=O)c1ccc(F)c(OC2CCNCC2)c1Cl [Example 33, 3-({(1R)-1-[2-Chloro-4-fluoro-3-(4-piperidinyloxy)phenyl]ethyl}oxy)-5-[5-(1-methyl-1H-pyrazol-4-yl)-1H-benzimidazol-1-yl]-2-thiophenecarboxamide] |
| < 500 nM | C[C@@H](Oc1cc(-n2cnc3cc(-c4cnn(C)c4)ccc32)sc1C(N)=O)c1ccc(F)c(OC2CCN(C)CC2)c1Cl [Example 34, 3-[((1R)-1-{2-Chloro-4-fluoro-3-[(1-methyl-4-piperidinyl)oxy]phenyl}ethyl)oxy]-5-[5-(1-methyl-1H-pyrazol-4-yl)-1H-benzimidazol-1-yl]-2-thiophenecarboxamide trifluoroacetate] |
| < 500 nM | C[C@@H](Oc1cc(-n2cnc3cc(-c4cnn(C)c4)ccc32)sc1C(N)=O)c1ccc(F)c(OC2CCN(CCF)CC2)c1Cl [Example 35, 3-{[(1R)-1-(2-Chloro-4-fluoro-3-{[1-(2-fluoroethyl)-4-piperidinyl]oxy}phenyl)ethyl]oxy}-5-[5-(1-methyl-1H-pyrazol-4-yl)-1H-benzimidazol-1-y]-2-thiophenecarboxamide] |
| < 500 nM | C[C@@H](Oc1cc(-n2cnc3cc(-c4cnn(C)c4)ccc32)sc1C(N)=O)c1ccc(F)c(OC2CCN(CCS(C)(=O)=O)CC2)c1Cl [Example 36, 3-({(1R)-1-[2-Chloro-4-fluoro-3-({1-[2-(methylsulfonyl)ethyl]-4-piperidinyl}oxy)phenyl]ethyl}oxy)-5-[5-(1-methyl-1H-pyrazol-4-yl)-1H-benzimidazol-1-yl]-2-thiophenecarboxamide] |
| > 1000 nM | C[C@@H](Oc1cc(-n2cnc3cc(-c4cc[n+]([O-])cc4)ccc32)sc1C(N)=O)c1cccc(OC2CCNCC2)c1Cl [Example 37, 3-({(1R)-1-1-[2-Chloro-3-(4-piperidinyloxy)phenyl]ethyl}oxy)-5-[5-(1-oxido-4-pyridinyl)-1H-benzimidazol-1-yl]-2-thiophenecarboxamide] |
